# Measured values as given in patent US11358967B2 (Boehringer Ingelheim International GmbH, priority 2016, dated 2022).
# pIC50: −log10 of the molar value.
# Target: T1, RORγ (Homo sapiens, UniProt P51449)
# T1 construct: expressed in transfected cells; host or cells: HEK 293 cells, transiently transfected
# T1 sequence (P51449 269-508 limits assumed): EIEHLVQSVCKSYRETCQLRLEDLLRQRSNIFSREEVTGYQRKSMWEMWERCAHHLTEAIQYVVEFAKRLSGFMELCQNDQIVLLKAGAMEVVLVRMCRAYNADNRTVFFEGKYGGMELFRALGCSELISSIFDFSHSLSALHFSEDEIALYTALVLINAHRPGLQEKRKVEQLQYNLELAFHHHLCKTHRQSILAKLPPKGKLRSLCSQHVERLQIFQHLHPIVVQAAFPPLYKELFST
# Experiment: Reporter Gene Assay (RGA): RORγ transactivation of a luciferase reporter in transiently transfected HEK 293 cells
# Format: cell-based
# Conditions: HEK 293 cells cotransfected with pGL4.3 luc2P/GAL4UAS and pBIND Gal4DBD hRORC LBD; 20-24 h incubation; luciferase readout
# Procedure: Reporter Gene Assay (RGA)
# A nuclear receptor transactivation assay is performed to quantitate the ability of test compounds to inhibit RORγ transactivation of a luciferase reporter. […] The system uses transiently transfected HEK 293 cells cotransfected with two plasmids (pGL4.3, luc2P/GAL4UAS/Hygro, and pBIND, Gal4DBD hRORC LBD1-3). The positive control is co-transiently transfected with both plasmids, and the negative control contains the pGL4.3 promoter sequence. Assays are assembled in 384 well plates where transiently transfected cells and test compound at varying concentrations are incubated for 20-24 h. The next day, assays plates are taken out and equilibrated at RT for 20-30 minutes. Bright-Glo™ Luciferase Assay System is used to detect Luciferase production. After addition of Bright GLO detection reagent, the plates are incubated at RT for 20 minutes. The plates are read on an Envision plate reader to measure luminescence signal. The RLU signal is converted to POC relative to control and blank wells.
# Compound Dilution Buffer:
# Bright Glo Luciferase Assay System: Promega #E2620
# Thaw lysis buffer provided in kit, add 100 mL lysis buffer to substrate powder.
row,Compound,pIC50
1,CCS(=O)(=O)c1ccc(CNc2nc3ncc(-c4c(OC)ncnc4C4CC4)nc3n([C@@H](C)C3CC3)c2=O)nc1 [Example 3],6.83
2,CCS(=O)(=O)c1ccc(CNc2nc3ncc(-c4c(C)ncnc4C4CC4)nc3n([C@@H](C)C3CC3)c2=O)nc1 [Example 4],6.57
3,CCS(=O)(=O)c1ccc(CNc2nc3ncc(-c4c(C)nc(N)nc4C4CC4)nc3n([C@@H](C)C3CC3)c2=O)nc1 [Example 5],6.56
4,CCS(=O)(=O)c1ccc(CNc2nc3ncc(-c4nccnc4C4CC4)nc3n([C@@H](C)C3CC3)c2=O)nc1 [Example 6],6.34
5,CC[C@H](C)n1c(=O)c(NCc2ccc(S(=O)(=O)CC)cn2)nc2ncc(-c3c(OC)ncnc3C3CC3)nc21 [Example 7],6.68
6,CC[C@H](C)n1c(=O)c(NCc2ccc(S(=O)(=O)CC)cn2)nc2ncc(-c3c(C)ncnc3C3CC3)nc21 [Example 8],6.47
7,CC[C@H](C)n1c(=O)c(NCc2ccc(S(C)(=O)=O)cn2)nc2ncc(-c3c(C)ncnc3C3CC3)nc21 [Example 9],5.88
8,CC[C@H](C)n1c(=O)c(NCc2ccc(S(=O)(=O)CC)nc2)nc2ncc(-c3c(C)ncnc3C3CC3)nc21 [Example 10],5.56
9,CCS(=O)(=O)c1ccc(CNc2nc3nnc(-c4c(C)ncnc4C4CC4)cc3n([C@@H](C)C3CC3)c2=O)nc1 [Example 12],5.54
